Assay [1] concerns Klebsiella pneumoniae 39645. Nature of the assay: In vitro tube dilution test (MIC), Klebsiella pneumoniae 39645. As to conditions: 18-20 hours at 37° C. It counts as cell-based. How it is done: (§1) Nalidixic acid, the parent acid, and its 1,2-ethanediamine (1:1) salt were tested in vitro against ten screening organisms and they were also tested against the standard E. coli (Vogel) systemic infection in mice, the latter in vivo study being carried out using three different routes of administration: oral, subcutaneous and intravenous. The materials and methods used in the comparative antibacterial tests are given in the following paragraphs.
(§2) The parent nalidixic acid was solublized by adding 1.0 ml. of 1 N NaOH to the crystalline acid and water was added to a concentration of 1000 mcg./ml. for the in vitro study or saline to a concentration of 2.5 or 5.0 mg./ml. for the in vivo study. A stock solution of nalidixic acid 1,2-ethanediamine (1:1) salt was prepared from the 1:2 salt according to Example 5 above (refer to Solution 5B); in saline this solution has a concentration equivalent of the nalidixic acid of 47.6 mg./ml. for in vivo studies. A concentration equivalent of the acid of 1000 mcg./ml. for the in vitro studies was obtained by dilution of the stock solution. […]
(§3) The compounds were tested for antimicrobial activity by a single-row tube dilution method. […] Minimal inhibitory concentrations (lowest drug concentrations showing no visible growth, designated MIC) were read after eighteen-twenty hours incubation at 37° C. The molds were read after five days incubation at 25° C.

In assay [2] the test system is Proteus vulgaris 9920. Nature of the assay: In vitro tube dilution test (MIC), Proteus vulgaris 9920. The class given is cell-based. Particulars: 18-20 hours at 37° C. How it is done: as §1, §2, §3
The subject of assay [3] is Pseudomonas aeruginosa MGH-2. The assay is described as follows: In vitro tube dilution test (MIC), Pseudomonas aeruginosa MGH-2. Particulars: 18-20 hours at 37° C. The class given is cell-based. How it is done: as §1, §2, §3
The subject of assay [4] is ten screening organisms. The assay is described as follows: In vitro antibacterial tests against ten screening organisms (overall). It counts as cell-based. Particulars: in words. How it is done:
as §1, §2, §3

For assay [5], the system named is Proteus mirabilis MGH-1. The assay is described as follows: In vitro tube dilution test (MIC), Proteus mirabilis MGH-1. The class given is cell-based. The method, then: as §1, §2, §3
The test system of assay [6] is Staphylococcus aureus (Smith). The assay is described as follows: In vitro tube dilution test (MIC), Staphylococcus aureus (Smith). It counts as cell-based. Particulars: 18-20 hours at 37° C. The method, then: as §1, §2, §3
For assay [7], the system named is Escherichia coli (Vogel). Nature of the assay: Mouse protection test, systemic Escherichia coli (Vogel) infection in mice. The class given is in vivo, Swiss Webster, female. As to conditions: for ED50 (the dose protecting 50% of the mice) / ED50: dosed 30 minutes after infection, 7 days; for ED50 (the dose protecting 50% of the mice): 10080 min; for ED50: Escherichia coli, 168 h, read-out: ED50 (the dose protecting 50% of the mice). How it is done:
as §1
The parent nalidixic acid was solublized by adding 1.0 ml. of 1 N NaOH to the crystalline acid and water was added to a concentration of 1000 mcg./ml. for the in vitro study or saline to a concentration of 2.5 or 5.0 mg./ml. for the in vivo study. A stock solution of nalidixic acid 1,2-ethanediamine (1:1) salt was prepared from the 1:2 salt according to Example 5 above (refer to Solution 5B); in saline this solution has a concentration equivalent of the nalidixic acid of 47.6 mg./ml. for in vivo studies. A concentration equivalent of the acid of 1000 mcg./ml. for the in vitro studies was obtained by dilution of the stock solution.
Culture for In Vivo Study Escherichia coii (Vogel)
Mice White, Swiss Webster, female, […].
The E. coli culture was grown in Brain Heart Infusion broth at 37° C. for sixteen hours after which 0.1 ml. was removed and inoculated into 10 ml. of Brain Heart Infusion broth and incubated for five hours. […] All mice to be infected were inoculated intraperitoneally with 0.5 ml. of the inoculum.
After inoculation of the organism, the mice were divided into groups of ten. Medication was given to one group of mice at each dose level of each of the […] drugs by each of the three routes of administration. Two groups (twenty mice) were used as infection controls. The drugs were administered thirty minutes after the mice were infected. The dose of drug for i.v. injection was contained in 0.2 ml. Those for oral or subcutaneous administration were contained in 0.5 ml. The mice were examined and deaths were recorded for seven days after inoculation. The ED50 's (the dose protecting 50% of the mice) were calculated using a modified Reed and Muench method.

Assay [8] concerns Candida albicans 10231. Nature of the assay: In vitro tube dilution test (MIC), Candida albicans 10231. The class given is cell-based. How it is done:
as §1, §2, §3

Assay [9] has as its system Streptococcus pyogenes C203. The assay is described as follows: In vitro tube dilution test (MIC), Streptococcus pyogenes C203. It counts as cell-based. As to conditions: 18-20 hours at 37° C. The method, then:
as §1, §2, §3

Assay [10] has as its system Escherichia coli (Vogel). The assay is described as follows: In vitro tube dilution test (MIC), Escherichia coli (Vogel). It counts as cell-based. Particulars: 18-20 hours at 37° C., read-out: Minimal Inhibitory Concentration. How it is done: as §1, §2, §3
Assay [11] relates to Aspergillus niger 16404. The assay is described as follows: In vitro tube dilution test (MIC), Aspergillus niger 16404. The class given is cell-based. As to conditions: 120 h, molds read after five days at 25° C., read-out: Minimal Inhibitory Concentration. How it is done:
as §1, §2, §3

Assay [12] relates to Trichophyton mentagrophytes 9129. Nature of the assay: In vitro tube dilution test (MIC), Trichophyton mentagrophytes 9129. The class given is cell-based. Particulars: 120 h, molds read after five days at 25° C., read-out: Minimal Inhibitory Concentration. The method, then: as §1, §2, §3
Setting [13] is: read-out: Minimal Inhibitory Concentration.

Each structure is given as a SMILES string. Values after ≈ are worked out from the molar mass of the structure shown. Structures can show the parent of a compound that is named as a salt. Where two headings read alike, the source gives them in different places.

Turning to `CCn1cc(C(=O)O)c(=O)c2ccc(C)nc21` [1,2-ED Salt, 1,2-ethanediamine (1:1) salt of nalidixic acid], the “Minimal Inhibitory Concentration” value in assay [1] turned out to be 31.3 µg/mL; in assay [2], 1.0 µg/mL; in assay [3] (Pseudomonas aeruginosa MGH-2) it was 62.5 µg/mL; in assay [5] (18-20 hours at 37° C.) it was 15.6 µg/mL; in assay [6], 31.3 µg/mL; in [8], 500 µg/mL. Also, the “Minimal Inhibitory Concentration” value in assay [9] was 250 µg/mL. In assay [4], the “antibacterial activity in standard in vitro tests vs. parent nalidixic acid” value is given as “as active antibacterially as the corresponding parent nalidixic acid”. Besides, in [4] (nine of the ten microorganisms), the “in vitro MIC's compared with MIC's of nalidixic acid” value is “identical to the MIC's of nalidixic acid against nine of the ten microorganisms examined”. The “ED50 (the dose protecting 50% of the mice)” value in [7] (Oral) turned out to be 18.9 mg./kg./dose; in [7] (Subcutaneous), 17.6 mg./kg./dose. Moreover, the “ED50 's compared with nalidixic acid in the mouse protection test” value in [7] (in words) is “no significant differences”. The “antibacterial activity against in vivo bacterial infections in mice vs. parent nalidixic acid” value in assay [7] (in words) is “as active antibacterially as the corresponding parent nalidixic acid”.

In the case of `CCn1cc(C(=O)O)c(=O)c2ccc(C)nc21` [nalidixic acid, 1-ethyl-1,4-dihydro-7-methyl-4-oxo-1,8-naphthyridine-3-carboxylic acid], the MIC in assay [1] (setting [13]) turned out to be 31.3 µg/mL (≈ 135 µM); in assay [2] (setting [13]), 1 µg/mL (≈ 4.31 µM); in assay [3] (Pseudomonas aeruginosa, MGH2, Pseudomonas aeruginosa MGH-2, read-out: Minimal Inhibitory Concentration), 125 µg/mL (≈ 538 µM); in [5] (MGH1, 18-20 hours at 37° C., read-out: Minimal Inhibitory Concentration), 15.6 µg/mL (≈ 67.2 µM); in [6] (setting [13]), 31.3 µg/mL (≈ 135 µM); in assay [10], 3.9 µg/mL (≈ 16.8 µM). Moreover, the MIC in [11] stood at 500 µg/mL (≈ 2150 µM); in [12], 500 µg/mL (≈ 2150 µM); in assay [8] (setting [13]), 500 µg/mL (≈ 2150 µM); in assay [9] (setting [13]), 250 µg/mL (≈ 1080 µM). Further, the ED50 in [7] (iv, Intravenous) stood at 17.6 mg/kg; in assay [7] (po, Oral), 16.5 mg/kg; in assay [7] (sc, Subcutaneous), 14 mg/kg.

One may read the ED50 as the dose at which the effect has come halfway, by size or by number of responders.

The values above are taken from patent US4207418A, “1,2-Ethanediamine salts of nalidixic acid” (Sterling Drug Inc., priority 1978, dated 1980).
